The values that follow are results of earlier work, collected in patent US20110092602A1 (priority 2008, published 2011).

The structures appear in SMILES notation. Read-outs that look alike come from different tables or passages of the source.

The conditions of series [1]: pH 7.
Experiment in series [2]: not given
This is another data set of the same source.

Consider `COc1cccc([C@]2(O)CCCC[C@H]2CN(C)C)c1.Cl` (racemic) [Tramadol hydrochloride, (±)cis-2-[(dimethylamino)methyl]-1-(3-methoxyphenyl)cyclohexanol hydrochloride], for which the “n-octanol/water log partition coefficient (logP)” value in series [1] was 1.35. Besides, the solubility entry (ethanol) is recorded as “readily soluble” and the solubility entry (water) is on record as “readily soluble”.
Take `CN(C)C[C@H]1CCCC[C@]1(O)c1cccc(O)c1` [Example M1]: the “affinity of binding to μ-opioid receptors” value in the series with μ-opioid receptors was “higher affinity”. Also, the “potency in μ-opioid binding relative to tramadol” value in the series on μ-opioid receptors (animal models) is 200 times. The “potency in producing analgesia relative to tramadol” value in series [2] (animal models) is “up to 6 times”.
On to `COc1cccc(C2(O)CCCCC2CN(C)C)c1` (centres unmarked) [Tramadol, 2-dimethylaminomethyl-1-(3-methoxyphenyl)cyclohexanol], for which, in the series with μ-opioid receptors, the “affinity of binding to μ-opioid receptors” value is listed as “low affinity”. For the same compound, in series [2] (several animals tests), the “antagonism of analgesia by the opiate antagonist naloxone” value was “only partially antagonized”.
